Patent US4551464A, “Antithrombotic sulfoximino carbostyrils” (Dr. Karl Thomae Gesellschaft mit beschrankter Haftung, priority 1981, dated 1985)

Legend:
[1] = Acute toxicity, single oral dose; assay type: in vivo, mice; details: mouse, in vivo; single oral dose of 250 mg (E: 1000 mg), 14 days observation, mice; read-out: animals that died out of 10
Protocol: (§1) The acute toxicity of the compounds was determined in groups of 10 mice after oral administration of a single dose (observation period: 14 days): […]

mice = test: Acute toxicity, single oral dose; assay type: in vivo; details: groups of 10 mice, single oral dose, observation period 14 days; dose at which 0 out of 10 animals died
Protocol: as §1

conscious mice = test: Determination of the prolongation of bleeding time (tail tip, oral, conscious mice); assay type: in vivo; details: Mus musculus, 2.5 mg/kg oral, after 1 hour, compared to control group, 5 animals per experiment
Protocol: To measure the bleeding time, 2.5 mg/kg of the test compound were administered orally to conscious mice. After one hour, 0.5 mm of the tip of the tail of each mouse was cut off and the droplets of blood were gently removed with filter paper every 30 seconds. The number of drops of blood thus obtained give a bleeding time (5 animals per experiment).
The results of the following table represent the prolongation of the bleeding time in percent as compared to a control group: […]

[2] = system: phosphodiesterase (PDE) from human blood platelets; test: PDE Inhibition (human blood platelet phosphodiesterase, 3H-cAMP hydrolysis); assay type: biochemical; details: 1 μmol/liter 3H-cAMP, 15 minutes at 37° C., pH 7.4
Protocol: cAMP is hydrolyzed to AMP by phosphodiesterase (PDE) from various sources, including blood platelets.
The phosphodiesterase used was prepared by centrifugal extraction at 10,000 G from human blood platelets which were frozen in water and then thawed.
0.3 ml of a mixture containing 0.1 mol/liter of trihydroxy-aminomethane (pH 7.4), 3 mmols/liter of magnesium chloride, 1 mmol/liter of AMP, 1 μmol/liter of ^3 H-cAMP (specific activity about 10 MBq/μmol), PDE and the inhibitor under investigation (water in the case of the control) was incubated for 15 minutes at 37° C. The incubation was stopped by the addition of 0.5 ml zinc sulfate (0.266 mol/liter) and 0.5 ml barium hydroxide (0.226 mol/liter), the precipitate was centrifuged, and the activity remaining in the unreacted ^3 H-cAMP in the supernatant was determined. From a comparison of the results for inhibitor and control cases, the concentration of the respective inhibitor necessary for a 50% inhibiting effect (IC50) was calculated: […]

| Compound | mortality at 336 h [1] [%] | Approximate acute toxicity (dose) (mice) [mg] | change in vivo at 2.5 mg/kg (conscious mice) [%] | IC50 [2] [nM] |
| --- | --- | --- | --- | --- |
| CC(=O)N=S(=O)(CCCCOc1ccc2c(c1)CCC(=O)N2)c1ccc(Cl)c(Cl)c1 (stereo not shown) [E, 6-[4-(N-acetyl-3,4-dichlorophenyl-sulfoximino)-butoxy]-3,4-dihydrocarbostyril] | 0 | 1000 | > 194 | 840 |
| CS(=N)(=O)CCCCOc1ccc2c(c1)CCC(=O)N2 (stereo not shown) [Compound A, 6-(4-methylsulfoximino-butoxy)-3,4-dihydrocarbostyril mesitylenesulfonate] | 0 | 250 | 73 | 45000 |
| Cc1cc(S(=N)(=O)CCCCOc2ccc3[nH]c(=O)ccc3c2)ccc1Br (stereo not shown) [Compound I, 6-[4-(3-methyl-4-bromophenyl-sulfoximino)-butoxy]-carbostyril] | 0 | 250 | > 275 | 39 |
| N=S(=O)(CCCCOc1ccc2c(c1)CCC(=O)N2)c1ccccc1 (stereo not shown) [B, 6-(4-phenylsulfoximino-butoxy)-3,4-dihydrocarbostyril] | 0 | 250 | > 161 | 2000 |
| Cc1ccc(S(=O)(=O)N=S(=O)(CCCCOc2ccc3c(c2)CCC(=O)N3)c2ccc(Cl)c(Cl)c2)cc1 (stereo not shown) [F, 6-[4-(N-p-toluenesulfonyl-3,4-dichlorophenyl-sulfoximino)-butoxy]-3,4-dihydrocarbostyril] | 0 | 250 | > 212 | 900 |
| CC(C)(C)c1ccc(S(=N)(=O)CCCCOc2ccc3c(c2)CCC(=O)N3)cc1 (stereo not shown) [K, 6-[4-(4-tert.butylphenyl-sulfoximino)-butoxy]-3,4-dihydrocarbostyril] | – | – | > 180 | 240 |
| N=S(=O)(CCCCOc1ccc2c(c1)CCC(=O)N2)c1ccc(F)cc1 (stereo not shown) [C, 6-[4-(4-fluorophenyl-sulfoximino)-butoxy]-3,4-dihydrocarbostyril] | 0 | 250 | 125 | 1200 |
| N=S(=O)(CCCCOc1ccc2[nH]c(=O)ccc2c1)c1ccc(F)cc1 (stereo not shown) [G, 6-[4-(4-fluorophenyl-sulfoximino)-butoxy]-carbostyril] | 0 | 250 | 85 | 400 |
| COc1ccc(S(=O)(CCCCOc2ccc3c(c2)CCC(=O)N3)=NC(=O)c2ccc(C(C)(C)C)cc2)cc1OC (stereo not shown) [Q, 6-[4-(N-tert.benzoyl-3,4-dimethoxyphenyl-sulfoximino)-butoxy]-3,4-dihydrocarbostyril] | – | – | > 158 | 3100 |
| N=S(=O)(CCCCOc1ccc2[nH]c(=O)ccc2c1)c1ccc(Cl)cc1 (stereo not shown) [H, 6-[4-(4-chlorophenyl-sulfoximino)-butoxy]-carbostyril] | 0 | 250 | 78 | 170 |
| N=S(=O)(CCCCOc1ccc2c(c1)CCC(=O)N2)c1ccc(Cl)cc1 (stereo not shown) [D, 6-[4-(4-chlorophenyl-sulfoximino)-butoxy]-3,4-dihydrocarbostyril] | 0 | 250 | 53 | 840 |
| N=S(=O)(CCCCOc1ccc2[nH]c(=O)ccc2c1)C1CCCCC1 (stereo not shown) [N, 6-(4-cyclohexylsulfoximino-butoxy)-carbostyril] | – | – | > 184 | 680 |
| N=S(=O)(CCCCOc1ccc2c(c1)CCC(=O)N2)c1ccc(C2CCCCC2)cc1 (stereo not shown) [L, 6-[4-(4-cyclohexylphenyl-sulfoximino)-butoxy]-3,4-dihydrocarbostyril] | – | – | > 191 | 52 |
| CC(C)(C)c1ccc(S(=N)(=O)CCCCOc2ccc3[nH]c(=O)ccc3c2)cc1 (stereo not shown) [M, 6-[4-(4-tert.butylphenyl-sulfoximino)-butoxy]-carbostyril] | – | – | > 191 | 210 |
| CCCC(=O)N=S(=O)(CCCCOc1ccc2c(c1)CCC(=O)N2)c1ccc(Cl)c(Cl)c1 (stereo not shown) [O, 6-[4-(N-butyryl-3,4-dichlorophenyl-sulfoximino)-butoxy]-3,4-dihydrocarbostyril] | – | – | > 233 | 530 |
| CC(=O)N=S(=O)(CCCCOc1ccc2c(c1)C(C)(C)C(=O)N2)c1ccc(Cl)cc1 (stereo not shown) [P, 5-[4-(N-Acetyl-4-chlorophenyl-sulfoximino)-butoxy]-3,3-dimethyl-indolin-2-one] | – | – | > 169 | 1800 |
| COc1ccc(S(=N)(=O)CCCCOc2ccc3c(c2)CCC(=O)N3)cc1OC (stereo not shown) [R, 6-[4-(3,4-dimethoxyphenyl-sulfoximino)-butoxy]-3,4-dihydrocarbostyril] | – | – | > 218 | 1600 |
